Reference: publication PMC6264777, “New Catechol Derivatives of Safrole and Their Antiproliferative Activity towards Breast Cancer Cells” (Molecules, 2011)
Like-named read-outs stand apart in the source and are kept apart here.

How the values were obtained:
[1] = test system: MDA-MB-231 cells; test: Sulforhodamine B in vitro growth inhibition assay, MDA-MB-231; assay type: cell-based, human; conditions: read-out: IC50 (μM) MDA-MB-231
Experimental: (§1) IC50 values of compounds 3-11, safrole, catechol 2 and the reference compound daunorubicin are summarized in Table 1 as the micromolar concentration that produces 50% cell growth inhibition after 72 hours of drug exposure.
(§2) The experimental cell cultures were obtained from American Type Culture Collection (Rockville, MD, USA). MCF-7, MDA-MB-231 cells were grown in DMEM-F12 medium containing 10% FCS, 100 U/mL penicillin, 100 µg/mL streptomycin and 1 mM glutamine. Cells are seeded into 96 well microtiter plates in 100 µL at plating density of 3 × 10^3 cells/well. After 24 h incubation at 37 °C (under a humidified 5% carbon dioxide to allow cell attachment) the cells were treated with different concentrations of drugs (safrole and derivatives) and incubated for 72 h under the same conditions. Stock solution of compounds was prepared in ethanol and the final concentration of this solvent was kept constant at 0.1%. Control cultures received 0.1% ethanol alone.
(§3) The sulforhodamine B assay according to the method of Skehan et al. was used with some modifications. Briefly, the cells were set up 3 × 10^3 cells per well of a 96-well, flat-bottomed 200 μL microplate. Cells were incubated at 37 °C in a humidified 5% CO2/95% air mixture and treated with the compounds at different concentrations for 72 hours. At the end of drug exposure, cells were fixed with 50% trichloroacetic acid at 4 °C (TCA final concentration 10%). After washing with destilled water, cells were stained with 0.1% sulforhodamine B (Sigma-Aldrich, St. Louis, MO, USA), dissolved in 1% acetic acid (50 µL/well) for 30 min, and subsequently washed with 1% acetic acid to remove unbound stain. Protein-bound stain was solubilized with 100 µL of 10 mM unbuffered Tris base. The cell density was determined using a […] plate reader (wavelength 540 nm). Values shown are the mean + SD three independent experiments in triplicate.

[2] = test system: dermal human fibroblast cells (DHF); test: cells; assay type: cell-based; conditions: for IC50: read-out: IC50 DHF
[3] = test system: MCF-7 cells; test: Sulforhodamine B in vitro growth inhibition assay, MCF-7; assay type: cell-based, human; conditions: read-out: IC50 (μM) MCF-7
Experimental: as §1, §2, §3

[4] = test system: various human cell types; conditions: cited from earlier work
[5] = Homo sapiens, MDA-MB-231, 50% cell growth inhibition after 72 hours of drug exposure, SRB, mean ± SD, three independent experiments in triplicate
[6] = Homo sapiens, Fibroblast, 50% cell growth inhibition after 72 hours of drug exposure, SRB, non-tumoral cells
[7] = Homo sapiens, MCF7, 50% cell growth inhibition after 72 hours of drug exposure, SRB, mean ± SD, three independent experiments in triplicate
[8] = 50% cell growth inhibition after 72 hours of drug exposure, SRB, mean ± SD, three independent experiments in triplicate

| Compound | IC50 [1, 5] | IC50 [2, 6] | IC50 [3, 7] | further results |
| --- | --- | --- | --- | --- |
| CC(=O)OCCCc1cc(OC(C)=O)c(OC(C)=O)cc1[N+](=O)[O-] [Compound 10, 4-[3-(acetyloxy)propyl]-5-nitro-1,2-phenylene diacetate] | 33.8 ± 4.9 µM | > 100 µM | 51.3 ± 2.1 µM | – |
| C=CCc1cc(O)c(O)cc1[N+](=O)[O-] [Compound 2, 4-allyl-5-nitrobenzene-1,2-diol] | 37.5 ± 2.65 µM | > 100 µM | 55 ± 7.11 µM | – |
| C=CCc1ccc(OC(C)=O)c(OC(C)=O)c1 [Compound 4, 4-allyl-1,2-phenylene diacetate] | 54.7 ± 6.6 µM | > 100 µM | > 100 µM | – |
| COc1cccc2c1C(=O)c1c(O)c3c(c(O)c1C2=O)C[C@@](O)(C(C)=O)C[C@@H]3O[C@H]1C[C@H](N)[C@H](O)[C@H](C)O1 [Daunorubicin, reference compound] | 0.38 ± 0.06 µM | 14.3 ± 1.85 µM | 0.19 ± 0.01 µM | – |
| OCCCc1ccc(O)c(O)c1 [Compound 5, 4-(3-hydroxypropyl)benzene-1,2-diol] | 54.3 ± 4.1 µM | > 100 µM | > 100 µM | – |
| C=CCc1ccc(O)c(O)c1 [Compound 3, 4-allylbenzene-1,2-diol] | 40.2 ± 6.9 µM | > 100 µM | 98.4 ± 11.6 µM | toxicity towards dermal human fibroblast (DHF cells) [2]: without toxicity |
| CC(=O)OCCCc1cc(O)c(O)cc1[N+](=O)[O-] [Compound 11, 3-(4,5-dihydroxy-2-nitrophenyl)propyl acetate] | 27.1 ± 4.4 µM | > 100 µM | 63.8 ± 5.5 µM | – |
| C=CCc1ccc2c(c1)OCO2 [safrole, Safrole] | – | – | – | IC50 ([1]; Homo sapiens, MDA-MB-231, 72 h): > 100 µM; IC50 ([2]; Homo sapiens, Fibroblast, 72 h): > 100 µM; concentrations at which safrole becomes cytotoxic [4]: 5000 to 10000 µM; IC50 ([3]; Homo sapiens, MCF7, 72 h): > 100 µM |
| CC(=O)OCCCc1ccc(OC(C)=O)c(OC(C)=O)c1 [Compound 6, 4-[3-(acetyloxy)propyl]-1,2-phenylene diacetate] | 5.9 ± 0.8 µM | > 100 µM | 97.8 ± 12.4 µM | – |
| 4-allyl-1,2-phenylene diacetate [Compound 7] | – | – | – | IC50 [1, 8]: 41.7 ± 7.4 µM; IC50 ([2]; 50% cell growth inhibition after 72 hours of drug exposure, SRB, non-tumoral cells): > 100 µM; IC50 [3, 8]: > 100 µM |
| CC(O)Cc1cc(O)c(O)cc1[N+](=O)[O-] (centres unmarked) [Compound 9, 4-(2-hydroxypropyl)-5-nitrobenzene-1,2-diol] | > 100 µM | > 100 µM | > 100 µM | – |
| O=[N+]([O-])c1cc(O)c(O)cc1CCCO [Compound 8, 4-(3-hydroxypropyl)-5-nitrobenzene-1,2-diol] | 57.3 ± 4.1 µM | > 100 µM | 78.2 ± 8.9 µM | – |
